Experimental data from patent US20250099478A1, “PLASMA KALLIKREIN INHIBITORS” (Merck Sharp & Dohme LLC, priority 2022, published 2025).

Legend:
Human plasma kallikrein = target: T1, Human plasma kallikrein (Homo sapiens, UniProt P03952); assay: Plasma Kallikrein Assay; type: biochemical; details: purified Human plasma kallikrein 0.5 nM, substrate Acetyl-K-P-R-AFC; read-out: PKal IC50
T1 construct: yields a heavy chain (371 amino acids) and a light chain (248 amino acids); purchased Enzyme Research Laboratories
Method in brief: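 Purified human plasma kallikrein (0.5 nM) hydrolysing fluorogenic Acetyl-K-P-R-AFC ([…]) in 50 mM HEPES pH 7.4, 150 mM NaCl, 5 mM CaCl2, 0.1% PEG 8000, at rt or 37 °C after enzyme–inhibitor equilibration. IC50 from four-parameter logistic fit; Ki via Cheng–Prusoff.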

human factor XIa = target: T2, human factor XIa (Homo sapiens, UniProt P03951); assay: Factor XIa Assay; type: biochemical; details: human factor XIa 0.04 nM, substrate GPR-AFC, 25° C.
T2 construct: with human (0.04 nM) factor XIa
T2 sequence (P03951 388-625 limits assumed): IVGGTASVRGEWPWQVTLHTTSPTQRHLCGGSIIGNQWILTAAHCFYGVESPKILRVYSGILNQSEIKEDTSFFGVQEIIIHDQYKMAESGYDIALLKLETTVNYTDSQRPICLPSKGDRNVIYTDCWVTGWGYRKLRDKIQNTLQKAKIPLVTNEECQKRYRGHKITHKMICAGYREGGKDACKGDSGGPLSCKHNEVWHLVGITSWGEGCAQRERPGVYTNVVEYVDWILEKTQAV
T2 sequence (P03951 19-387 partner limits assumed): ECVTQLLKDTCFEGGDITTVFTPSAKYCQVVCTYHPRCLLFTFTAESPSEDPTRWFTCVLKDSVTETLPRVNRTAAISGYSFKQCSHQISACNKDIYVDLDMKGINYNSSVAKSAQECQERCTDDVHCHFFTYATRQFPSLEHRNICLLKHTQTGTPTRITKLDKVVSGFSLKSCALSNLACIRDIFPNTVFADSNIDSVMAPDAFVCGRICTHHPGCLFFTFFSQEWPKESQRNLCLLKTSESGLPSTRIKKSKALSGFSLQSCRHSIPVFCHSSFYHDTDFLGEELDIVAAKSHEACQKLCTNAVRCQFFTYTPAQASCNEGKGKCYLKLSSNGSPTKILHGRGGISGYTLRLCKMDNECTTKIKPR

T1 sequence (P03952 391-638 limits assumed): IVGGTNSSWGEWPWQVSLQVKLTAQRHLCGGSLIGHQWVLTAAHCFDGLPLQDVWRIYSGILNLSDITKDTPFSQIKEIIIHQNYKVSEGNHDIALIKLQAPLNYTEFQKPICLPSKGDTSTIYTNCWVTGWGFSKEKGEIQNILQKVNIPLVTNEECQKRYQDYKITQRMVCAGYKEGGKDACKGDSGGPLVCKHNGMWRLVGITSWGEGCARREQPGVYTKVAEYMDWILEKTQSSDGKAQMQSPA
T1 sequence (P03952 20-390 partner limits assumed): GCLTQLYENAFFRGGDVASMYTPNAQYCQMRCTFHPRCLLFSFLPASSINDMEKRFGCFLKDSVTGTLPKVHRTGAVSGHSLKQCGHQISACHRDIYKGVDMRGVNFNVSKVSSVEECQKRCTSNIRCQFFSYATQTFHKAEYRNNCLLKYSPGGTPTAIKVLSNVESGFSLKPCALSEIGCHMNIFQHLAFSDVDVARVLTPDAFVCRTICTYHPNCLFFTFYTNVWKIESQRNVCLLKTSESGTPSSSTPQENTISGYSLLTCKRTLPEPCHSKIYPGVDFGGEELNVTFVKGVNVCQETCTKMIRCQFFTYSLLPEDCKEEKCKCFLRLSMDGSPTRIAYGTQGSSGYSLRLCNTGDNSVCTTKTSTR

| SMILES | IC50 (Human plasma kallikrein) [nM] | IC50 (human factor XIa) [nM] |
| --- | --- | --- |
| CC[C@H](c1cc(C)c2nc[nH]c2c1)c1n[nH]c(C(=O)N2CCC[C@@]3(C2)OC(=O)Nc2ccc(Cl)c(F)c23)n1 [Example 110, (R)-6-Chloro-5-fluoro-1′-(3-((R)-1-(4-methyl-1H-benzo[d]imidazol-6-yl)propyl)-1H-1,2,4-triazole-5-carbonyl)spiro[benzo[d][1.3]oxazine-4,3′-piperidin]-2(1H)-one] | 1 | 1220 |
| Cc1cc(Cc2nnc(C(=O)N3CCC[C@@]4(C3)OC(=O)Nc3ccc(Cl)c(F)c34)[nH]2)cc2[nH]ncc12 [Example 124, (R)-6-Chloro-5-fluoro-1′-(5-((4-methyl-1H-indazol-6-yl)methyl)-4H-1,2,4-triazole-3-carbonyl)spiro[benzo[d][1,3]oxazine-4,3′-piperidin]-2(1H)-one] | 13.5 | 7760 |
| COCC(c1ccccc1)c1n[nH]c(C(=O)N2CCC[C@@]3(C2)OC(=O)Nc2ccc(Cl)c(F)c23)n1 (stereo partly drawn) [Example 130, (4R)-6-Chloro-5-fluoro-1′-(3-(2-methoxy-1-phenylethyl)-1H-1,2,4-triazole-5-carbonyl)spiro[benzo[d][1,3]oxazine-4,3′-piperidin]-2(1H)-one] | 5.3 | 1360 |
